PMC6661955, “Indole bearing thiadiazole analogs: synthesis, β-glucuronidase inhibition and molecular docking study” (BMC Chemistry, 2019)

Biological target: T1, β-glucuronidase (Bos taurus, UniProt A3KMY8)
T1 sequence (A3KMY8 24-652): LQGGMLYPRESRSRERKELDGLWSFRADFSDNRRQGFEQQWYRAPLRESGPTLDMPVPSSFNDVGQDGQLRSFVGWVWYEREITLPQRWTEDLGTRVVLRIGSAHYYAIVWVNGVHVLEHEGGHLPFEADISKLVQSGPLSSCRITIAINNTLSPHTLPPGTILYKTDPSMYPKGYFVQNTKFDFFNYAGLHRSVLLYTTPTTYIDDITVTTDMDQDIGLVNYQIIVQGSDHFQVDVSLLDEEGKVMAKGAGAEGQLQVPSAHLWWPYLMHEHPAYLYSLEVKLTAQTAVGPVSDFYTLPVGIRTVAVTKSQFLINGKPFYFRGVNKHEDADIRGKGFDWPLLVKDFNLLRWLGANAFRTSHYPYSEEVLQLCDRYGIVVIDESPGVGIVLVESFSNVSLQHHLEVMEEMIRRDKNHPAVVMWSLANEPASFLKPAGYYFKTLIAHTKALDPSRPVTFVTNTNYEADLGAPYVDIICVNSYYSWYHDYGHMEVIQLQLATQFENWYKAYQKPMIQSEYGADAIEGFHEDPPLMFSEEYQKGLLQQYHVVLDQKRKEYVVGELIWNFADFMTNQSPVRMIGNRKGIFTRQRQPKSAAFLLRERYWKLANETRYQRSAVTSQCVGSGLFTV
Experiment: β-glucuronidase inhibition
Assay type: biochemical
Details: grouping in words

SMILES	activity group according to inhibitory IC50 values
Cc1ccc(-c2nnc(-c3ccc4[nH]ccc4c3)s2)cc1 [Compound 1, 2-(1H-indol-5-yl)-5-(p-tolyl)-1,3,4-thiadiazole]	low active
Cc1ccccc1-c1nnc(-c2ccc3[nH]ccc3c2)s1 [Compound 2, 2-(1H-indol-5-yl)-5-(o-tolyl)-1,3,4-thiadiazole]	low active
Oc1ccccc1-c1nnc(-c2ccc3[nH]ccc3c2)s1 [Compound 3, 2-(5-(1H-indol-5-yl)-1,3,4-thiadiazol-2-yl)phenol]	highly active
Oc1cccc(-c2nnc(-c3ccc4[nH]ccc4c3)s2)c1 [Compound 4, 3-(5-(indol-5-yl)-1,3,4-thiadiazol-2-yl)phenol]	moderate active
Oc1cccc(-c2nnc(-c3ccc4[nH]ccc4c3)s2)c1O [Compound 6, 3-(5-(1H-indol-5-yl)-1,3,4-thiadiazol-2-yl)benzene-1,2-diol]	highly active
Oc1ccc(-c2nnc(-c3ccc4[nH]ccc4c3)s2)cc1O [Compound 7, 4-(5-(1H-indol-5-yl)-1,3,4-thiadiazol-2-yl)benzene-1,2-diol]	highly active
Oc1ccc(-c2nnc(-c3ccc4[nH]ccc4c3)s2)cc1 [Compound 9, 4-(5-(1H-indol-5-yl)-1,3,4-thiadiazol-2-yl)phenol]	moderate active
Fc1ccc(-c2nnc(-c3ccc4[nH]ccc4c3)s2)cc1 [Compound 20, 2-(4-fluorophenyl)-5-(1H-indol-5-yl)-1,3,4-thiadiazole]	moderate active
